Among the test systems are A498 renal; A549 NSCLC; MALME-3M melanoma; MCF7 breast; NCI-H226 lung; OVCAR-4 ovarian; OVCAR-5 ovarian; SF-268 CNS; SK-OV-3 ovarian; SNB-19 CNS.
What all share (test): NCI tumour cell line growth inhibition, 48 h

Molecules are shown by their SMILES.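 Dose response: 5 concentrations. Exposure: 48 h. Format: 96-well plates. Endpoint: linear interpolation; highest concentration if not reached. TGI: concentration producing complete growth inhibition.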 Where only a bound is given, the exact number is not on record here.

Regarding `COC(=O)C1CCC(=O)N1C(c1ccccc1)c1ccc(OC)c(OC)c1` (stereo not given), the TGI in the test on A498 renal, with A549 NSCLC, with MALME-3M melanoma, in the test with MCF7 breast, with NCI-H226 lung and in the test on OVCAR-4 ovarian was over 100 µM in each case. For the same molecule, the TGI in the test with OVCAR-5 ovarian, with SF-268 CNS, in the test on SK-OV-3 ovarian and with SNB-19 CNS was over 100 µM throughout.
As for `CC(C)/C(Cl)=N\OC(=O)Nc1ccc(S(N)(=O)=O)cc1`, the TGI in the test with A498 renal was found to be 31.7 µM; with A549 NSCLC, 37.9 µM; in the test on MALME-3M melanoma, 10.1 µM; with MCF7 breast it was 27.7 µM; in the test on NCI-H226 lung it was 45.5 µM; in the test on OVCAR-4 ovarian it was 40.1 µM. Further, the TGI is 33.8 µM with OVCAR-5 ovarian, 51.7 µM in the test on SF-268 CNS, 31.5 µM in the test on SK-OV-3 ovarian and over 78.7 µM in the test with SNB-19 CNS.
Turning to `O=C1CCC23CC(C=CC=C12)n1c(=O)n(-c2ccccc2)c(=O)n13` (stereo not given), the TGI in the test on A498 renal was over 100 µM; in the test on A549 NSCLC, over 100 µM; in the test with MALME-3M melanoma it was over 100 µM; in the test with MCF7 breast it was 32.3 µM; in the test with NCI-H226 lung it was over 100 µM; in the test on OVCAR-4 ovarian it was over 100 µM. In addition, the TGI with OVCAR-5 ovarian, in the test with SF-268 CNS, with SK-OV-3 ovarian and in the test on SNB-19 CNS was over 100 µM in each case.
Take `Oc1cccc2c(Cl)ccnc12`: the TGI in the test with A498 renal is over 43.5 µM; in the test with A549 NSCLC it was over 100 µM; with MALME-3M melanoma it was 25.4 µM; in the test on MCF7 breast, over 100 µM; in the test with NCI-H226 lung it was over 100 µM; in the test with OVCAR-4 ovarian it was 7.45 µM. Also, the TGI with OVCAR-5 ovarian was over 50.4 µM; with SF-268 CNS, over 39.3 µM; with SK-OV-3 ovarian it was 96.9 µM; in the test with SNB-19 CNS it was over 100 µM.
As for `COc1cc(/C=C/C(=N\NS(=O)(=O)c2ccc(C)cc2)c2sc(NNC(C)=O)nc2C)ccc1O`, the TGI in the test on A498 renal, with A549 NSCLC, in the test with MALME-3M melanoma, with MCF7 breast, with NCI-H226 lung and in the test with OVCAR-4 ovarian was over 100 µM throughout. Moreover, the TGI with OVCAR-5 ovarian, in the test with SF-268 CNS, with SK-OV-3 ovarian and in the test with SNB-19 CNS was over 100 µM each time.
As for `C=C(C1=CC(=O)C(C)(C)O1)[C@@H]1CC=C([C@@H]2CC[C@H]3[C@@]2(C)CC[C@H]2C(C)(C)C(=O)[C@H](O)C[C@]32C)[C@H](O)O1`, the TGI with A498 renal stood at 9.89 µM; with A549 NSCLC, 30.7 µM; in the test with MALME-3M melanoma, 5.27 µM; in the test with MCF7 breast, 1.61 µM; in the test with NCI-H226 lung, 40.3 µM; with OVCAR-4 ovarian it was 10.3 µM. Moreover, the TGI with OVCAR-5 ovarian worked out at 28 µM; with SF-268 CNS it was 3.76 µM; in the test with SK-OV-3 ovarian, 27.9 µM; in the test with SNB-19 CNS, 24.8 µM.
Consider `C=C1c2nc3ccccc3n2C=C(c2ccccc2)N1c1ccc([N+](=O)[O-])cc1`, for which the TGI in the test on A498 renal is 42 µM; in the test on A549 NSCLC, 13.5 µM; in the test on MALME-3M melanoma it was 25.9 µM; with MCF7 breast, over 37.9 µM; in the test with NCI-H226 lung, 27.6 µM; in the test on OVCAR-4 ovarian, 2.29 µM. Moreover, the TGI is 40.7 µM in the test with OVCAR-5 ovarian, 49.1 µM in the test with SF-268 CNS, 15.3 µM with SK-OV-3 ovarian and 24.4 µM in the test with SNB-19 CNS.
As to `C(/c1ccco1)=c1/nc(-c2ccccc2)n2c1nc1ccccc12`, the TGI in the test on A498 renal, in the test with A549 NSCLC, in the test with MALME-3M melanoma, with MCF7 breast, in the test on NCI-H226 lung and in the test on OVCAR-4 ovarian was over 100 µM throughout. The TGI with OVCAR-5 ovarian, in the test on SF-268 CNS, in the test with SK-OV-3 ovarian and in the test with SNB-19 CNS was over 100 µM each time.
Turning to `COC(=O)c1cc2c(n1S(=O)(=O)c1ccc(C)cc1)C(=O)C(=O)c1[nH]cc(C(=O)OCc3ccccc3)c1-2`, the TGI in the test on A498 renal came out at 3.26 µM; in the test on A549 NSCLC, 0.351 µM; in the test on MALME-3M melanoma it was 0.115 µM; in the test on MCF7 breast it was 0.174 µM; in the test on NCI-H226 lung it was 0.462 µM; in the test on OVCAR-4 ovarian, 0.987 µM. Moreover, the TGI came out at 1.02 µM with OVCAR-5 ovarian, 1.24 µM in the test on SF-268 CNS, 2.13 µM with SK-OV-3 ovarian and 0.441 µM with SNB-19 CNS.
As to `O=C1/C(=C/c2ccc(O)cc2)CC/C1=C\c1ccc(O)cc1`, the TGI in the test on A498 renal, with A549 NSCLC, in the test on MALME-3M melanoma, in the test with MCF7 breast, with NCI-H226 lung and with OVCAR-4 ovarian was over 100 µM throughout. In addition, the TGI in the test on OVCAR-5 ovarian, in the test on SF-268 CNS, in the test with SK-OV-3 ovarian and in the test with SNB-19 CNS was over 100 µM throughout.

(Values after PubChem BioAssay (NCI).)
